In publication PMC4122966, “Novel VCP modulators mitigate major pathologies of rd10, a mouse model of retinitis pigmentosa” (Scientific Reports, 2014):

Columns and labels:
[1] = molecular target: recombinant VCP (Homo sapiens, UniProt P55072); test: ATPase activity of recombinant VCP in vitro (modified molybdate assay, [γ-32P]ATP); format: biochemical
Description: (§1) We measured ATPase activities by modifying the molybdate assay, which was as described previously. In the assay, 1 μg of whole cell soluble lysate of neuronally differentiated PC12 cells, or 500 ng recombinant VCP protein, was incubated in 20 μl of the ATPase assay buffer (20 mM HEPES (pH 7.4), 50 mM KCl, 5 mM MgCl2) with 100 μM [γ-^32P]ATP (18.5 GBq/mmol) (PerkinElmer) at 37°C for 20 min. After incubation, the reaction was quenched by addition of 200 μl of 8% ice-cold trichloroacetic acid solution with 1 mM K2HPO4, and then 50 μl of solution A (3.75% ammonium molybdate, 0.02 M silicotungstic acid in 3 N H2SO4) and 300 μl of n-butyl acetate were added to the reaction. The samples were mixed well and centrifuged at 12,000 × g for 1 min. Then, 200 μl aliquots from the upper organic phases were taken and their radioactivity was determined with a liquid scintillation counter for β-radiation, which determined the amounts of ^32P released.

[2] = tested on: cellular VCP functions; test: immunoblot of ubiquitinated proteins, CHOP (ER stress) and LC3 (autophagy) in cultured cells; format: cell-based
Description: (§2) Figure 1 Structures and characterization of KUSs, novel VCP modulators. (a) Structures and IC50 values of KUS11, KUS31, KUS69, KUS94, KUS121, and KUS187. […] (b) ATPase activity assays of recombinant human […], comparing KUSs and DBeQ. (c) Immunoblot analysis of ubiquitinated proteins, an ER stress marker (CHOP), and an autophagy indicator (LC3), comparing KUSs and DBeQ. As a control, MG132, a proteasome inhibitor, was used for the analysis. Actin served as a loading control. Complete scans of the different blots are presented in Supplementary Fig. 7. (d) Comparison of KUSs and DBeQ for cell death-inducing activities. HeLa cells were treated with 50 μM DBeQ or KUSs for 24 hours. […]

[3] = tested on: HeLa cells; test: cell death-inducing activity; format: cell-based; conditions: 50 μM, 24 hours
Description: as §2

[4] = tested on: essentially all tested cultured cells; test: cellular toxicity on cultured cells; format: cell-based; conditions: up to 50 μM
[5] = tested on: HeLa cells; test: immunocytochemistry of laminin γ1 aggregation in tunicamycin-treated cells; format: cell-based; conditions: HeLa, Tm 0.5 μg/ml, 5 hours, 50 μM KUS
Description: Figure 4 KUSs and ATP each prevented a decrease of ATP levels and ameliorated ER stress in tunicamycin-treated cells. (a) Immunocytochemical analyses of HeLa cells by an anti-laminin γ1 antibody. HeLa cells were treated with 0.5 μg/ml of tunicamycin (Tm) for 5 hours in the presence of KUSs (50 μM), ATP (0.1, 0.3, and 1 mM), methylpyruvate (MePyr) (3 and 10 mM), or vehicle alone (DMSO). Then, cells were fixed and subjected to immunocytochemical analyses. Normally growing HeLa cells were also analyzed (Control). Scale bar, 10 μm. (b) Measurements of the relative amounts of ATP per cell. HeLa cells were treated with tunicamycin (Tm, 0.5 μg/ml) for 24 hours in the presence of KUSs (50 μM) or ATP (0.1 and 1 mM), or vehicle alone (DMSO), and were harvested. Then, ATP amounts from 1.5 × 10^5 cells were measured. * P < 0.05, ** P < 0.01. Error bars indicate SD. (c) Western blot analyses on CHOP. HeLa cells were treated with 0.5 μg/ml of tunicamycin for 5 hours in the presence of KUSs (50 μM), ATP (0.1, 0.3, and 1 mM), methylpyruvate (MePyr) (3 and 10 mM), or vehicle alone (-). Then, cells were harvested and subjected to western blot analyses. Actin served as a loading control. Complete scans of the different blots are presented in Supplementary Fig. 9.

[6] = tested on: whole cell soluble lysate of neuronally differentiated PC12 cells; test: total ATPase activity in clarified whole cell lysates; format: biochemical; conditions: 1 μM compound
Description: Figure 3 Effects of KUSs on ATPase activities, ATP levels, and acetyl-CoA levels. (a) Inhibition of ATPase activity in clarified whole cell lysates by KUS121, KUS187, and KUS94, but not KUS11. Total ATPase activities in clarified whole cell lysates from differentiated PC12 cells were measured in the absence and presence of KUSs. Relative ATPase activities are shown with values in the absence of KUS (D: DMSO) set at 100%. (b) HeLa cells were cultured in medium with low glucose (0.25 g/l) for 20 hours, with or without KUSs, and ATP levels were measured with luciferase assays. (c) HeLa cells were cultured in medium with low glucose (0.25 g/l) for 20 hours, with or without KUSs, and acetyl-CoA levels were measured. * P < 0.05, ** P < 0.01, *** P < 0.001 vs. DMSO control (Dunnett's test, n = 3).
as §1

Sequence of recombinant VCP (P55072 whole entry, species assumed): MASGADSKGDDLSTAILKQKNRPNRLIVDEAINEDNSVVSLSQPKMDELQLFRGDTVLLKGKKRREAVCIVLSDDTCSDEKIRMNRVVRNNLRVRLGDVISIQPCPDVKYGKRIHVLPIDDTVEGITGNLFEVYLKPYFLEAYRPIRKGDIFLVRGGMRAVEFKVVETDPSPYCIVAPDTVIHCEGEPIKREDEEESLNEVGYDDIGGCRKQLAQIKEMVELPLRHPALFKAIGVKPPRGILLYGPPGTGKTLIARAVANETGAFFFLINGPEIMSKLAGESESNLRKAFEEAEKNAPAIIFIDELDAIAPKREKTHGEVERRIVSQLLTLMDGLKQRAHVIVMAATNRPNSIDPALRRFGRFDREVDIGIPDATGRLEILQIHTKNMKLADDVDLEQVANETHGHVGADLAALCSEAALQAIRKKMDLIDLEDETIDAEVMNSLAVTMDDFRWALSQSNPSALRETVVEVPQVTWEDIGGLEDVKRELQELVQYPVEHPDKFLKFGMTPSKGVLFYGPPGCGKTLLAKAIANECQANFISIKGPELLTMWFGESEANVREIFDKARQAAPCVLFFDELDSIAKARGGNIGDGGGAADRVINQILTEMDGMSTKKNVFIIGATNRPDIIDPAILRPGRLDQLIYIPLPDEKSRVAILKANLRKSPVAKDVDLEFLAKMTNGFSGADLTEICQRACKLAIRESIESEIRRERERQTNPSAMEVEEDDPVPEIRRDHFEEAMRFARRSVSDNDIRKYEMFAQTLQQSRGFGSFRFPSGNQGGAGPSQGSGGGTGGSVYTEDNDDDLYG

Compound	IC50 [1] [nM]	induction of accumulation of ubiquitinated proteins, ER stress (CHOP), autophagy (LC3) [2]	induction of cell death [3]	apparent cellular toxicity [4]	aggregation of laminin γ1 [5]	lowering of total ATPase activity [6]
Nc1c(/N=N/c2ccc(-c3ccccc3)nc2)cc(S(=O)(=O)O)c2ccccc12 [KUS31]	229	did not induce any of these phenotypes	did not induce any of these phenotypes	did not manifest any apparent cellular toxicity		
Nc1c(/N=N/c2ccc(-c3ccccc3-c3ccccc3)nc2)cc(S(=O)(=O)O)c2ccccc12 [KUS69]	116	did not induce any of these phenotypes	did not induce any of these phenotypes	did not manifest any apparent cellular toxicity	clearly prevented the aggregation of laminin γ1	
Nc1c(/N=N/c2ccc(-c3cccc4c3sc3ccccc34)nc2)cc(S(=O)(=O)O)c2ccccc12 [KUS94]	1000	did not induce any of these phenotypes	did not induce any of these phenotypes	did not manifest any apparent cellular toxicity	clearly prevented the aggregation of laminin γ1	approximately 20%
